Reference: ChEMBL document CHEMBL3885881, “DrugMatrix”

Species: Rattus norvegicus
Assay: DrugMatrix - Regimen: Daily Repeat
Type: toxicity, organism-based, Sprague-Dawley
Design: regimen Daily Repeat, gender Male, age 6-8 weeks
Details: in vivo, po, route oral GAVAGE, […]; for ABSOLUTE BASOPHIL / ABSOLUTE EOSINOPHIL / ABSOLUTE LYMPHOCYTE / ABSOLUTE MONOCYTE / ABSOLUTE SEGMENTED NEUTROPHIL / BASOPHIL / EOSINOPHIL / ERYTHROCYTE COUNT / HEMATOCRIT / HEMOGLOBIN / LEUKOCYTE COUNT / LYMPHOCYTE / MEAN CORPUSCULAR HEMOGLOBIN / MEAN CORPUSCULAR HEMOGLOBIN CONCENTRATION / MEAN CORPUSCULAR VOLUME / MONOCYTE / NEUTROPHIL / NUCLEATED RED BLOOD CELLS / PLATELET COUNT: tissue Blood; for ALANINE AMINOTRANSFERASE / ALBUMIN / ALKALINE PHOSPHATASE / ASPARTATE AMINOTRANSFERASE / BLOOD UREA NITROGEN / CARBON DIOXIDE / CHLORIDE / CHOLESTEROL / CREATINE PHOSPHOKINASE / CREATININE / GLUCOSE / LACTATE DEHYDROGENASE / LIPASE / PHOSPHORUS / POTASSIUM / SODIUM / TOTAL BILIRUBIN / TOTAL PROTEIN / URIC ACID: tissue Plasma
[1] = 5 mg/kg, 120 h, dose level Low, time 5 day
[2] = 94 mg/kg, 72 h, dose level High, time 3 day
[3] = 94 mg/kg, 120 h, dose level High, time 5 day

CC(C)n1c(/C=C/C(O)CC(O)CC(=O)O)c(-c2ccc(F)cc2)c2ccccc21 (centres undefined) [FLUVASTATIN]
ABSOLUTE BASOPHIL [1]: 0 CELLS/uL
ABSOLUTE EOSINOPHIL [1]: 0 CELLS/uL
ABSOLUTE LYMPHOCYTE [1]: 8489.33 CELLS/uL
ABSOLUTE MONOCYTE [1]: 28 CELLS/uL
ABSOLUTE SEGMENTED NEUTROPHIL [1]: 816 CELLS/uL
BASOPHIL [1]: 0%
EOSINOPHIL [1]: 0%
ERYTHROCYTE COUNT [1]: 5.73 x10E6/uL
HEMATOCRIT [1]: 34.77%
HEMOGLOBIN [1]: 13.73 G/DL
LEUKOCYTE COUNT [1]: 9.33 x10E3/uL
LYMPHOCYTE [1]: 90.67%
MEAN CORPUSCULAR HEMOGLOBIN [1]: 24 pg
MEAN CORPUSCULAR HEMOGLOBIN CONCENTRATION [1]: 39.5 G/DL
MEAN CORPUSCULAR VOLUME [1]: 60.73 fL
MONOCYTE [1]: 0.33%
NEUTROPHIL [1]: 9%
NUCLEATED RED BLOOD CELLS [1]: 0 /100WBC
PLATELET COUNT [1]: 1186.33 x10E3/uL
ALANINE AMINOTRANSFERASE [1]: 89.67 u/L
ALBUMIN [1]: 4.33 G/DL
ALKALINE PHOSPHATASE [1]: 440.33 u/L
ASPARTATE AMINOTRANSFERASE [1]: 141.33 u/L
BLOOD UREA NITROGEN [1]: 13 mg/dL
CARBON DIOXIDE [1]: 25.67 mmol/L
CHLORIDE [1]: 103 MEQ/L
CHOLESTEROL [1]: 59.67 mg/dL
CREATINE PHOSPHOKINASE [1]: 300.67 u/L
CREATININE [1]: 0.19 mg/dL
GLUCOSE [1]: 158.33 mg/dL
LACTATE DEHYDROGENASE [1]: 263.33 u/L
LIPASE [1]: 51.67 u/L
PHOSPHORUS [1]: 9.2 mg/dL
POTASSIUM [1]: 5.92 MEQ/L
SODIUM [1]: 148.8 MEQ/L
TOTAL BILIRUBIN [1]: 0.17 mg/dL
TOTAL PROTEIN [1]: 5.6 G/DL
URIC ACID [1]: 0.77 mg/dL
ABSOLUTE BASOPHIL [2]: 0 CELLS/uL
ABSOLUTE EOSINOPHIL [2]: 39 CELLS/uL
ABSOLUTE LYMPHOCYTE [2]: 7651.67 CELLS/uL
ABSOLUTE MONOCYTE [2]: 155.33 CELLS/uL
ABSOLUTE SEGMENTED NEUTROPHIL [2]: 2554 CELLS/uL
BASOPHIL [2]: 0%
EOSINOPHIL [2]: 0.33%
ERYTHROCYTE COUNT [2]: 5.55 x10E6/uL
HEMATOCRIT [2]: 35.43%
HEMOGLOBIN [2]: 13.93 G/DL
LEUKOCYTE COUNT [2]: 10.4 x10E3/uL
LYMPHOCYTE [2]: 73.33%
MEAN CORPUSCULAR HEMOGLOBIN [2]: 25.1 pg
MEAN CORPUSCULAR HEMOGLOBIN CONCENTRATION [2]: 39.33 G/DL
MEAN CORPUSCULAR VOLUME [2]: 63.83 fL
MONOCYTE [2]: 1.33%
NEUTROPHIL [2]: 25%
NUCLEATED RED BLOOD CELLS [2]: 0 /100WBC
PLATELET COUNT [2]: 1394.33 x10E3/uL
ALANINE AMINOTRANSFERASE [2]: 258.33 u/L
ALBUMIN [2]: 4.47 G/DL
ALKALINE PHOSPHATASE [2]: 597.67 u/L
ASPARTATE AMINOTRANSFERASE [2]: 446.67 u/L
BLOOD UREA NITROGEN [2]: 15 mg/dL
CARBON DIOXIDE [2]: 34.67 mmol/L
CHLORIDE [2]: 95.67 MEQ/L
CHOLESTEROL [2]: 55.67 mg/dL
CREATINE PHOSPHOKINASE [2]: 534 u/L
CREATININE [2]: 0.16 mg/dL
GLUCOSE [2]: 136.33 mg/dL
LACTATE DEHYDROGENASE [2]: 400.33 u/L
LIPASE [2]: 10 u/L
PHOSPHORUS [2]: 11.83 mg/dL
POTASSIUM [2]: 5.75 MEQ/L
SODIUM [2]: 143.43 MEQ/L
TOTAL BILIRUBIN [2]: 0.2 mg/dL
TOTAL PROTEIN [2]: 6.1 G/DL
URIC ACID [2]: 0.7 mg/dL
ABSOLUTE BASOPHIL [3]: 0 CELLS/uL
ABSOLUTE EOSINOPHIL [3]: 0 CELLS/uL
ABSOLUTE LYMPHOCYTE [3]: 6138.33 CELLS/uL
ABSOLUTE MONOCYTE [3]: 139 CELLS/uL
ABSOLUTE SEGMENTED NEUTROPHIL [3]: 2022.67 CELLS/uL
BASOPHIL [3]: 0%
EOSINOPHIL [3]: 0%
ERYTHROCYTE COUNT [3]: 6.14 x10E6/uL
HEMATOCRIT [3]: 37.2%
HEMOGLOBIN [3]: 14.47 G/DL
LEUKOCYTE COUNT [3]: 8.3 x10E3/uL
LYMPHOCYTE [3]: 74%
MEAN CORPUSCULAR HEMOGLOBIN [3]: 23.6 pg
MEAN CORPUSCULAR HEMOGLOBIN CONCENTRATION [3]: 38.9 G/DL
MEAN CORPUSCULAR VOLUME [3]: 60.67 fL
MONOCYTE [3]: 1.67%
NEUTROPHIL [3]: 24.33%
NUCLEATED RED BLOOD CELLS [3]: 0 /100WBC
PLATELET COUNT [3]: 1488.67 x10E3/uL
ALANINE AMINOTRANSFERASE [3]: 191 u/L
ALBUMIN [3]: 4.5 G/DL
ALKALINE PHOSPHATASE [3]: 802.67 u/L
ASPARTATE AMINOTRANSFERASE [3]: 387.67 u/L
BLOOD UREA NITROGEN [3]: 11.67 mg/dL
CARBON DIOXIDE [3]: 29.33 mmol/L
CHLORIDE [3]: 100 MEQ/L
CHOLESTEROL [3]: 53.33 mg/dL
CREATINE PHOSPHOKINASE [3]: 612.33 u/L
CREATININE [3]: 0.13 mg/dL
GLUCOSE [3]: 134.33 mg/dL
LACTATE DEHYDROGENASE [3]: 263.33 u/L
LIPASE [3]: 38.67 u/L
PHOSPHORUS [3]: 7.8 mg/dL
POTASSIUM [3]: 5.55 MEQ/L
SODIUM [3]: 149.05 MEQ/L
TOTAL BILIRUBIN [3]: 0.1 mg/dL
TOTAL PROTEIN [3]: 6.03 G/DL
URIC ACID [3]: 0.43 mg/dL
